Data taken from publication PMC8418037, “Immunomodulatory effect of standardized C. asiatica extract on a promotion of regulatory T cells in rats” (BMC Complementary Medicine and Therapies, 2021).

Experiments:
[1] = rat, in vivo
Experimental: Rats, weighing more than 400 g, were put in metabolic cages and fasted overnight with free access to water before experiments. […] The intravenous preparations were freshly dissolved in 20% DMSO/NSS for injection. The oral preparations were freshly prepared by suspending the test compound in 0.5% CMC. To reduce pain and injury during drug administration and blood collection, rats were anesthetized with 5% isoflurane by chamber induction. Serial blood samples (300 μL) were collected at 0, 5, 15, and 30 min, and at 1, 2, 4, 8, and 24 h after dosing. Blood samples were centrifuged at 5000 g for 10 min, and plasma was collected and stored at − 20 °C until analysis. Determination of aspartate transaminase (AST), alanine transaminase (ALT), and creatinine levels were performed at pre-dosing, and at 0 h and 24 h after dosing. Creatinine level was determined by enzymatic Roche Cobas 6000 analyzer. In this enzymatic method creatinine is converted to creatine under the activity of creatininase. Creatine is then acted upon by creatinase to form sarcosine and urea. Sarcosine oxidase converts sarcosine to glycine and hydrogen peroxide, and the hydrogen peroxide reacts with chromophore in the presence of peroxidase to produce a color product that is measured at 546 nm (secondary wavelength = 700 nm). This is an endpoint reaction that agrees well with recognized HPLC methods, and it has the advantage over Jaffe picric acid-based methods that are susceptible to interferences from non-creatinine chromogens. For tissue collection, the rats was euthanized with isoflurane after oral dosing the test compound at 100 mg/kg for 7 days. After the dead was confirmed, spleen and blood were immediately collected, washed with normal saline solution, and send to immunology laboratory for further experiments. The control group received oral gavage of 0.5% CMC as vehicle control. All animal procedures were complied with the ethical principles and guidelines for the use of animals (National Research Council of Thailand, 2015).
All pharmacokinetic parameters were computed by non-compartmental analysis using PK Solution 2.0 software (Summit Research Service, USA). […] The absolute oral bioavailability was calculated as (AUCp.o. ÷ dose p.o.) ÷ (AUCi.v. ÷ dose i.v.). Pharmacokinetic data are presented as mean ± standard deviation. Blood chemical parameters were analyzed by Mann–Whitney U-test to compare the significance of differences between pre-dosing and 24 h post-dosing, with a p-value of less than 0.05. All statistical analyses were calculated using SPSS version 16 (SPSS, Inc., USA). […] The data were analyzed with an unpaired Student’s t-test. A p-value of < 0.05 was considered statistically significant.

[2] = system: multidrug-resistant protein 2; set-up: method as in PMID 24091240; conditions: affecting the level of absorbed compound; cited from earlier work
P-glycoprotein = system: P-glycoprotein; set-up: method as in PMID 24091240; conditions: affecting the level of absorbed compound; cited from earlier work

## C[C@H]1[C@H](C)CC[C@]2(C(=O)O[C@@H]3O[C@H](CO[C@@H]4O[C@H](CO)[C@@H](O[C@@H]5O[C@@H](C)[C@H](O)[C@@H](O)[C@H]5O)[C@H](O)[C@H]4O)[C@@H](O)[C@H](O)[C@H]3O)CC[C@]3(C)C(=CC[C@@H]4[C@@]5(C)C[C@@H](O)[C@H](O)[C@@](C)(CO)[C@@H]5[C@H](O)C[C@]43C)[C@H]12 [Madecassoside, madecassoside]
[1]
  ALT, Post-dose (24 h): 24.00 ± 4.85 U/L
  ALT, Pre-dose (0 h): 23.80 ± 2.59 U/L
  AST, Post-dose (24 h): 63.20 ± 16.81 U/L
  AST, Pre-dose (0 h): 46.20 ± 4.87 U/L
  Creatinine, Post-dose (24 h): 0.67 ± 0.05 mg/dL
  Creatinine, Pre-dose (0 h): 0.64 ± 0.04 mg/dL
  Physical appearance, Post-dose (24 h): Normal
  Physical appearance, Pre-dose (0 h): Normal
[2]
  Substrate for multidrug-resistant protein 2: substrate
P-glycoprotein
  Substrate for P-glycoprotein: substrate
